The text below walks through data of publication PMC11311842, “Radiosynthesis and Preclinical Evaluation of ^18F-Labeled Estradiol Derivatives with Different Lipophilicity for PET Imaging of Breast Cancer” (Cancers, 2024).

One data set concerns MCF-7 and T47D tumors. Conditions: cited from earlier work.
For data set [1] the following is noted: cited from earlier work.
A short description of data set [2]: Stability in human serum and plasma in vitro (radio-HPLC). Format: in vitro ADME. Conditions: 37 °C; for Stability in human serum and plasma (in words): over 120 min, radio-HPLC; for Stability in Human Serum or Plasma: over 2 h, same for serum and plasma. As for the experimental part: An aliquot of the formulated tracer solution (40 µL containing approx. 10 MBq in 0.9% NaCl) was incubated with 200 µL of human plasma (Hölzel Diagnostika Handels GmbH, from CosmoBio USA, Carlsbad, CA, USA) or human serum (Biochrom GmbH, Merck KGaA, Darmstadt, Germany), respectively, at 37 °C. After various time points (5–120 min), aliquots (30 µL) were taken and quenched in methanol or 10% TFA (30 µL). The samples were centrifuged for 3 min, and subsequently the supernatants were analyzed by radio-HPLC (Chromolith RP-18e, 100 × 4.6 mm, 10–100% acetonitrile (with 0.1% TFA) in water (with 0.1% TFA) over 5 min, 4 mL/min).

The nature of data set [3]: Determination of logD7.4 (n-octanol/PBS). Format: physicochemical. To be noted: n-octanol/PBS pH 7.4; mean ± SD, three independent experiments. How it is done: For the determination of the octanol–water coefficient, an aliquot of the radiotracer was added to PBS (500 µL, pH 7.4) and n-octanol (500 µL) in an Eppendorf tube. The mixture was vortexed and subsequently centrifuged, each for 1 min. Three samples (each 100 µL) were taken from both the PBS and the n-octanol layer and measured using a γ-counter (Wallac Wizard, PerkinElmer, Waltham, MA, USA). The logD7.4 was expressed as log(cpmoctanol/cpmPBS) and reported as mean ± SD. The determination of logD7.4 was performed in three independent experiments, each performed in triplicate.

The test system of a further data set is ER+ MCF-7 cells. Put plainly: Cellular uptake assay in ER+ cells. Format: cell-based, human. As for the experimental part: One day prior to the experiment, MCF-7 and MDA-MB-231 cells were seeded in 24-well plates (350,000 cells/well). The cells were washed once with cell medium. The cells were incubated with the respective radiotracer in cell medium (510 µL) for 10, 20, 30, 60, 90, 120 min at 37 °C in the absence and presence of estradiol (E2, final concentration of 72 µM). After incubation, the plates were set on ice and washed with ice-cold PBS twice, following cell lysis and detachment with NaOH (0.1 M, 750 µL, 37 °C). The cells were transferred to counting tubes, and the radioactivity was measured using a γ-counter (Wallac Wizard, PerkinElmer, Waltham, MA, USA). The protein concentration of each well was determined in duplicate using Bradford reagent (Bio-Rad Laboratories GmbH, Feldkirchen, Germany). The cellular uptake assay was performed in 2–4 independent experiments, each performed in quadruplicate for each time point.

Data set [4] deals with MCF-7 (ER+) breast cancer cells. The data set is described as follows: Competitive cellular uptake with ^18F-TA-Glyco-EE as radioligand. Format: cell-based. To be noted: Homo sapiens, MCF7, 1 h, read-out: IC50 for inhibition of cellular uptake of ^18F-TA-Glyco-EE. As for the experimental part: Competitive uptake experiments were performed using ^18F-TA-Glyco-EE as a radioligand. One day prior to the experiment, MCF-7 cells were seeded in 96-well plates (50,000 cells/well). The cell medium was removed, and the respective estradiol derivative, as a competitor of the radioligand, was added in concentrations from 0 to 500 µM in 90 µL cell culture medium each. After ^18F-TA Glyco-EE (10 µL, approx. 1 MBq/well) was added, the incubation proceeded for 60 min at 37 °C. The plate was set on ice and washed with ice-cold PBS, followed by cell lysis and detachment with NaOH (0.1 M, 200 µL, 37 °C). The cells were transferred into counting tubes, and the radioactivity was measured using a γ-counter (Wallac Wizard, PerkinElmer, Waltham, MA, USA). One single experiment was performed in triplicate.

The test system of data set [5] is MCF-7 tumor-bearing nude mice. On the set-up: method as in PMID 29466767. To be noted: 60 min p.i., cited from earlier work.
The nature of data set [6]: Plasma protein binding (MicroSpin G-50 columns). Format: in vitro ADME. To be noted: human plasma, 10 min, 37 °C. As for the experimental part:
MicroSPin G-50 columns (Cytiva, Merck KGaA, Darmstadt, Germany) were preconditioned according to the manufacturer’s protocol and the experiment was performed as follows. In brief, an aliquot of the tracer (1 µL, approx. 250 kBq) was added to NaCl (0.9%, 200 µL, negative control) or human plasma (200 µL) and incubated for 10 min at 37 °C. A sample from the plasma or negative control (40 µL) was carefully added to the resin, and the column was placed in an Eppendorf tube. After centrifugation (2 min, 2000× g), the eluate and the resin were collected separately. Both were measured for radioactivity using a γ-counter (Wallac Wizard, PerkinElmer, Waltham, MA, USA), and the radioactivity eluted from the resin was calculated as a percentage of the total amount of radioactivity. The determination of plasma protein binding was performed twice in duplicate.

Data set [7] can be described thus: Hydrolysis of the Si-^18F bond observed on formulation. Format: physicochemical. Conditions: slightly acidic conditions (HBSS pH 6.4). As for the experimental part: Aiming at a more lipophilic derivatization of EE for comparison to the above-described hydrophilic derivatization, the well-known isotopic ^19F-^18F exchange reaction according to Schirrmacher et al. was applied to the radiosynthesis of ^18F-SiFA-EE, starting from ^19F-SiFA-EE. After cartridge purification and reformulation in HBSS (pH 6.4), ^18F-SiFA-EE was obtained in an AY of 44% (referred to [^18F]fluoride) after a total synthesis time of 27 min, with an Am of up to 28 GBq/µmol. It should be noted here that the obtained Am of ^18F-SiFA-EE was strongly dependent on the starting activity.

Like-named read-outs stand apart in the source and are kept apart here.

Turning to `CC12CCC3c4ccc(O)cc4CCC3C1CC([18F])C2O` (stereo not drawn) [FES, 16α-[^18F]fluoroestradiol], in the data set with MCF-7 and T47D tumors, the “Uptake in MCF-7 and T47D tumors” value is < 0.4 %ID/g. Moreover, in data set [1], the logD7.4 is reported as 2.5.

Consider `CC12CCC3c4ccc(O)cc4CCC3C1CCC2(O)c1cn(C2OC(C[18F])C(O)C(O)C2O)nn1` (stereo not shown) [^18F-Glyco-EE], for which, in [2], the “Stability in human serum and plasma (in words)” value was “stable in both plasma and serum over 120 min”; the “Stability in Human Serum or Plasma” value was >99% over 2 h ^2. Also, the logD7.4 in [3] turned out to be 1.7 ± 0.1. The “Total cellular uptake in MCF-7 cells” value with ER+ MCF-7 cells (after 90 min, 37 °C, absence of E2) is 7 %/mg.

On to `C[C@]12CC[C@@H]3c4ccc(O)cc4CC[C@H]3[C@@H]1CC[C@@]2(O)c1cn(CCOCCOCCOCCF)nn1` [PEG-EE], for which the half-inhibitory concentration (IC50) in data set [4] was found to be 1270 µM.

Consider `CC12CCC3c4ccc(O)cc4CCC3C1CCC2(O)c1cn(CCOCCOCC[18F])nn1` (stereo not shown) [^18F-FETE], for which the Tumor uptake in [5] (MCF-7 tumor-bearing nude mice) is 4 %ID/g. For the same compound, the “Tumor uptake after fulvestrant pretreatment” value in data set [5] (MCF-7 xenografts) is listed as 1.5 %ID/g.

Take `CC12CCC3c4ccc(O)cc4CCC3C1CCC2(O)c1cn(CCOCCOCCOCC[18F])nn1` (stereo not shown) [^18F-PEG-EE]: in data set [2], the “Stability in human serum and plasma (in words)” value is “stable in both plasma and serum over 120 min”; the “Stability in Human Serum or Plasma” value is >99% over 2 h ^2. In data set [3], the logD7.4 is 2.2 ± 0.1. Further, the “Cellular uptake relative to ^18F-Glyco-EE” value in the data set with ER+ MCF-7 cells (ER+ MCF-7 cells) is on record as “four times higher”. In addition, the “Cellular uptake in MCF-7 cells” value in the data set on ER+ MCF-7 cells (after 60 min, 37 °C, absence of E2) worked out at 27 %/mg. Further, the “Plasma Protein Binding” value in data set [6] turned out to be 71 ± 4%.

For `CC(=O)OC1C(CF)OC(n2cc(C3(O)CCC4C5CCc6cc(O)ccc6C5CCC43C)nn2)C(OC(C)=O)C1OC(C)=O` (stereo not shown) [TA-Glyco-EE], in [4], the IC50 was found to be 194 µM.

Take `C#C[C@]1(O)CC[C@H]2[C@@H]3CCc4cc(O)ccc4[C@H]3CC[C@@]21C` [EE, 17α-ethinylestradiol]: in data set [1], the “calculated logKow” value is given as 3.7.

In the case of `C[C@]12CC[C@@H]3c4ccc(O)cc4CC[C@H]3[C@@H]1CC[C@@H]2O` [E2, 17β-estradiol, reference compound], the IC50 in data set [4] (MCF-7 cells, 60 min, 37 °C, single experiment in triplicate) was determined as 56 µM.

In the case of `CC12CCC3c4ccc(O)cc4CCC3C1CCC2(O)c1cn(Cc2ccc([Si]([18F])(C(C)(C)C)C(C)(C)C)cc2)nn1` (stereo not shown) [^18F-SiFA-EE], the “Hydrolytic stability of the Si-^18F bond” value in [7] is “highly amenable to hydrolysis of the Si-^18F bond”.
